Values after ≈ are worked out from the molar mass of the structure shown.
How the values were obtained:
[1] = test system: M. tuberculosis clinical strain 14470; experiment: MIC by microplate alamarBlue assay (MABA); assay type: cell-based, Mycobacterium tuberculosis; details: strain 14470: resistant to INH SM RFP EMB KM RBT AK CPM 1321 PAS; for MIC: Mycobacterium tuberculosis
[2] = test system: M. tuberculosis clinical strain 15321; experiment: MIC by microplate alamarBlue assay (MABA); assay type: cell-based, Mycobacterium tuberculosis; details: strain 15321: resistant to INH RFP EMB AK ETO OFX RFT; for MIC: Mycobacterium tuberculosis
[3] = test system: M. tuberculosis clinical strain 14822; experiment: MIC by microplate alamarBlue assay (MABA); assay type: cell-based, Mycobacterium tuberculosis; details: strain 14822: resistant to INH SM RFP EMB KM RBT AK 1321 PAS; for MIC: Mycobacterium tuberculosis
[4] = test system: M. tuberculosis clinical strain 13946; experiment: MIC by microplate alamarBlue assay (MABA); assay type: cell-based, Mycobacterium tuberculosis; details: strain 13946: resistant to INH SM RFP EMB RBT PAS OFX; for MIC: Mycobacterium tuberculosis
[5] = test system: M. tuberculosis clinical strain 16030; experiment: MIC by microplate alamarBlue assay (MABA); assay type: cell-based, Mycobacterium tuberculosis; details: strain 16030: resistant to INH RFP RFT; for MIC: Mycobacterium tuberculosis
[6] = test system: M. tuberculosis clinical strain 14862; experiment: MIC by microplate alamarBlue assay (MABA); assay type: cell-based, Mycobacterium tuberculosis; details: strain 14862: resistant to INH SM RFP EMB 1321 CPM PAS; for MIC: Mycobacterium tuberculosis
[7] = test system: M. tuberculosis clinical strain 14619; experiment: MIC by microplate alamarBlue assay (MABA); assay type: cell-based, Mycobacterium tuberculosis; details: strain 14619: resistant to INH RFP KM CPM AK 1321 PAS; for MIC: Mycobacterium tuberculosis
[8] = test system: M. tuberculosis clinical strain 15833; experiment: MIC by microplate alamarBlue assay (MABA); assay type: cell-based, Mycobacterium tuberculosis; details: strain 15833: resistant to INH RFP RFT; for MIC: Mycobacterium tuberculosis
[9] = test system: M. tuberculosis clinical strain 16825; experiment: MIC by microplate alamarBlue assay (MABA); assay type: cell-based, Mycobacterium tuberculosis; details: strain 16825: resistant to INH RFP AK RFT; for MIC: Mycobacterium tuberculosis
[10] = test system: M. tuberculosis clinical strain 14441; experiment: MIC by microplate alamarBlue assay (MABA); assay type: cell-based, Mycobacterium tuberculosis; details: strain 14441: resistant to INH RFP RBT AK CPM 1321 OFX LFX; for MIC: Mycobacterium tuberculosis
[11] = test system: M. tuberculosis clinical strain 14158; experiment: MIC by microplate alamarBlue assay (MABA); assay type: cell-based, Mycobacterium tuberculosis; details: strain 14158: resistant to INH SM RFP EMB AK 1321 PAS OFX; for MIC: Mycobacterium tuberculosis
[12] = test system: M. tuberculosis clinical strain 14092; experiment: MIC by microplate alamarBlue assay (MABA); assay type: cell-based, Mycobacterium tuberculosis; details: strain 14092: resistant to INH SM RFP; for MIC: Mycobacterium tuberculosis
[13] = test system: M. tuberculosis clinical strain 14550; experiment: MIC by microplate alamarBlue assay (MABA); assay type: cell-based, Mycobacterium tuberculosis; details: strain 14550: resistant to INH SM RFP EMB KM CPM AK 1321 PAS; for MIC: Mycobacterium tuberculosis
[14] = test system: M. tuberculosis clinical strain 14282; experiment: MIC by microplate alamarBlue assay (MABA); assay type: cell-based, Mycobacterium tuberculosis; details: strain 14282: resistant to INH SM RFP EMB RBT 1321 OFX LFX; for MIC: Mycobacterium tuberculosis
[15] = test system: M. tuberculosis clinical strain 13908; experiment: MIC by microplate alamarBlue assay (MABA); assay type: cell-based, Mycobacterium tuberculosis; details: strain 13908: resistant to INH RFP EMB 1321 PAS OFX LFX; for MIC: Mycobacterium tuberculosis
[16] = test system: M. tuberculosis clinical strain 14619; experiment: MBC determination (CFU-based); details: strain 14619: resistant to INH RFP KM CPM AK 1321 PAS; 7 days incubation, 3 log10 CFU decrease
[17] = test system: M. tuberculosis clinical strain 14441; experiment: MBC determination (CFU-based); details: strain 14441: resistant to INH RFP RBT AK CPM 1321 OFLX LVFX; 7 days incubation, 3 log10 CFU decrease
[18] = test system: M. tuberculosis clinical strain 15833; experiment: MBC determination (CFU-based); details: strain 15833: resistant to INH RFP RFT; 7 days incubation, 3 log10 CFU decrease
[19] = test system: M. tuberculosis clinical strain 15321; experiment: MBC determination (CFU-based); details: strain 15321: resistant to INH RFP EMB AK ETO OFLX RFT; 7 days incubation, 3 log10 CFU decrease

SMILES	MIC [1] [µg/mL]	MIC [2] [µg/mL]	MIC [3] [µg/mL]	MIC [4] [µg/mL]	MIC [5] [µg/mL]	MIC [6] [µg/mL]	MIC [7] [µg/mL]	MIC [8] [µg/mL]	MIC [9] [µg/mL]	MIC [10] [µg/mL]	MIC [11] [µg/mL]	MIC [12] [µg/mL]	MIC [13] [µg/mL]	MIC [14] [µg/mL]	MIC [15] [µg/mL]	MBCs [16] [µg/mL]	MBCs [17] [µg/mL]	MBCs [18] [µg/mL]	MBCs [19] [µg/mL]	other results
CO[C@H]1/C=C/O[C@@]2(C)Oc3c(C)c(O)c4c(O)c(c(/C=N/N5CCN(C)CC5)c(O)c4c3C2=O)NC(=O)/C(C)=C\C=C\[C@H](C)[C@H](O)[C@@H](C)[C@@H](O)[C@@H](C)[C@H](OC(C)=O)[C@@H]1C [RFP, rifampicin]	> 40	> 40	> 40	> 40	> 40	15.2 (≈ 18.5 µM)	> 40	> 40	> 40	> 40	> 40	> 40	> 40	> 40	6.9 (≈ 8.39 µM)					
COc1nc2ccc(Br)cc2cc1[C@@H](c1ccccc1)[C@@](O)(CCN(C)C)c1cccc2ccccc12 [BDQ, bedaquiline]	0.468 (≈ 0.842 µM)	0.028 (≈ 0.0504 µM)	0.111 (≈ 0.2 µM)	0.021 (≈ 0.0378 µM)	0.017 (≈ 0.0306 µM)	0.006 (≈ 0.0108 µM)	0.052 (≈ 0.0936 µM)	0.09 (≈ 0.162 µM)	0.06 (≈ 0.108 µM)	0.214 (≈ 0.385 µM)	0.03 (≈ 0.054 µM)	0.048 (≈ 0.0864 µM)	0.051 (≈ 0.0918 µM)	0.053 (≈ 0.0954 µM)	0.266 (≈ 0.479 µM)	0.156	>2.5	>0.32	>0.313	
NC[C@H]1O[C@H](O[C@H]2[C@H](O)[C@@H](O[C@H]3O[C@H](CO)[C@@H](O)[C@H](N)[C@H]3O)[C@H](N)C[C@@H]2N)[C@H](O)[C@@H](O)[C@@H]1O [KM, kanamycin]																				MICs [1]: 0.437 µg/mL; MICs [2]: >40 µg/mL; MICs [3]: >40 µg/mL; MICs [4]: 0.788 µg/mL; MICs [5]: 1.072 µg/mL; MICs [6]: 1.243 µg/mL; MICs [7]: 1.195 µg/mL; MICs [8]: 2.302 µg/mL; MICs [9]: >40 µg/mL; MICs [10]: >40 µg/mL; MICs [11]: >40 µg/mL; MICs [12]: 1.199 µg/mL; MICs [13]: 1.186 µg/mL; MICs [14]: 1.199 µg/mL; MICs [15]: 1.151 µg/mL
COc1ncc(-c2ccc(Cl)cc2)cc1[C@@H](c1ccccc1)[C@@](O)(CCN(C)C)c1cccc2ccccc12 [WX-081, sudapyridine]	0.966 (≈ 1.8 µM)	0.109 (≈ 0.203 µM)	0.48 (≈ 0.894 µM)	0.098 (≈ 0.182 µM)	0.057 (≈ 0.106 µM)	0.026 (≈ 0.0484 µM)	0.3 (≈ 0.559 µM)	0.236 (≈ 0.439 µM)	0.226 (≈ 0.421 µM)	0.465 (≈ 0.866 µM)	0.111 (≈ 0.207 µM)	0.235 (≈ 0.438 µM)	0.17 (≈ 0.317 µM)	0.113 (≈ 0.21 µM)	0.849 (≈ 1.58 µM)	0.313	>5	>1.25	>1.25	
NNC(=O)c1ccncc1 [INH, isoniazid]	> 40	1.04 (≈ 7.56 µM)	> 40	1.81 (≈ 13.2 µM)	2.45 (≈ 17.9 µM)	2.17 (≈ 15.8 µM)	4.38 (≈ 31.9 µM)	4.5 (≈ 32.8 µM)	2.37 (≈ 17.3 µM)	> 40	> 40	2.41 (≈ 17.5 µM)	2.25 (≈ 16.4 µM)	2.35 (≈ 17.1 µM)	3.01 (≈ 21.9 µM)					
